Measured values published in ChEMBL document CHEMBL1201862, “PubChem BioAssay data set” (2004).
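Interpolation was linear, between the two tested concentrations surrounding the appropriate level; five concentrations were tested over 48 hours in 96-well plates. GI50 marks 50% less growth.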 Activity calls are given as the source filed them. Cut-off read from the data, not from the text of the source: active = GI50 up to about 1.1 µM and inactive = higher.

What was measured:
Experiment in all cases: DTP human tumour cell line panel, 48 h
K562 = tested on: K562
NCI-H23 = tested on: NCI-H23
A498 = tested on: A498
UO-31 = tested on: UO-31
MCF7 = tested on: MCF7
SN12C = tested on: SN12C
SNB-75 = tested on: SNB-75
NCI-H522 = tested on: NCI-H522
786-0 = tested on: 786-0
MDA-MB-231 = tested on: MDA-MB-231
ACHN = tested on: ACHN
M14 = tested on: M14
HT-29 = tested on: HT-29
SNB-19 = tested on: SNB-19
T47D = tested on: T47D
SK-MEL-28 = tested on: SK-MEL-28
RXF 393 = tested on: RXF 393
SF-268 = tested on: SF-268
UACC-62 = tested on: UACC-62
TK-10 = tested on: TK-10

| SMILES | GI50 (K562) | GI50 (NCI-H23) | GI50 (A498) | GI50 (UO-31) | GI50 (MCF7) | GI50 (SN12C) | GI50 (SNB-75) | GI50 (NCI-H522) | GI50 (786-0) | GI50 (MDA-MB-231) | GI50 (ACHN) | GI50 (M14) | GI50 (HT-29) | GI50 (SNB-19) | GI50 (T47D) | GI50 (SK-MEL-28) | GI50 (RXF 393) | GI50 (SF-268) | GI50 (UACC-62) | GI50 (TK-10) |
| --- | --- | --- | --- | --- | --- | --- | --- | --- | --- | --- | --- | --- | --- | --- | --- | --- | --- | --- | --- | --- |
| CN(C(=O)c1ccncc1)c1ccccc1 | > 100 µM (inactive) | > 100 µM (inactive) | > 100 µM (inactive) | > 100 µM (inactive) | > 100 µM (inactive) | > 100 µM (inactive) | > 100 µM (inactive) | > 100 µM (inactive) | > 100 µM (inactive) | > 100 µM (inactive) | > 100 µM (inactive) | > 100 µM (inactive) | > 100 µM (inactive) | > 100 µM (inactive) | > 100 µM (inactive) | > 100 µM (inactive) | > 100 µM (inactive) | > 100 µM (inactive) | > 100 µM (inactive) | > 100 µM (inactive) |
| COc1cc2c(c(OC)c1OC)-c1c(cc3c(c1OC)OCO3)CC(C)C(C)(O)C2OC(=O)c1ccccc1 (stereo not given) | 46.3 µM (inactive) | 45.4 µM (inactive) | 39.8 µM (inactive) | 21.1 µM (inactive) | 44.9 µM (inactive) | 40.5 µM (inactive) | 41 µM (inactive) | 24.6 µM (inactive) | 55.1 µM (inactive) | 20.2 µM (inactive) | 32 µM (inactive) | 34.4 µM (inactive) | 25.8 µM (inactive) | 37.8 µM (inactive) | 42.3 µM (inactive) | 63.7 µM (inactive) | 27.9 µM (inactive) | 53.5 µM (inactive) | 56 µM (inactive) | 96.2 µM (inactive) |
| CC(C)NC(=O)OCc1c(COC(=O)NC(C)C)c(-c2ccc[n+](COC(=O)Cc3ccccc3)c2)n2c1CCC2 | 71 µM (inactive) | 21.3 µM (inactive) | 22.5 µM (inactive) | 27.5 µM (inactive) | 25.1 µM (inactive) | 30.2 µM (inactive) | 24.3 µM (inactive) | 19 µM (inactive) | 17.3 µM (inactive) | 26.2 µM (inactive) | 13.2 µM (inactive) | 40.2 µM (inactive) | 26.1 µM (inactive) | 94.8 µM (inactive) | 28.7 µM (inactive) | > 100 µM (inactive) | 23 µM (inactive) | 26.9 µM (inactive) | 17 µM (inactive) | 45 µM (inactive) |
| COC(=O)[C@H](CCSC)NC(=O)c1ccc(CNC(=O)/C=C/c2cccc(Oc3ccccc3)c2)cc1 | 20.7 µM (inactive) | 42 µM (inactive) | 19.8 µM (inactive) | 42.9 µM (inactive) | 38.6 µM (inactive) | 60.5 µM (inactive) | 22.4 µM (inactive) | 25.8 µM (inactive) | > 100 µM (inactive) | 21.3 µM (inactive) | > 74.6 µM (inactive) | 13.5 µM (inactive) | > 100 µM (inactive) | > 95.1 µM (inactive) | 0.27 µM (active) | 17.4 µM (inactive) | 16.7 µM (inactive) | > 59.2 µM (inactive) | 18.2 µM (inactive) | > 45.3 µM (inactive) |
| CCO/C=N/NC(=O)CSc1nc2ccc(I)cc2c(=O)n1Cc1ccccc1 | 11 µM (inactive) | 36.9 µM (inactive) | 84.5 µM (inactive) | > 100 µM (inactive) | 33.6 µM (inactive) | 84.5 µM (inactive) | 40.5 µM (inactive) | 3.04 µM (inactive) | 56 µM (inactive) | 38 µM (inactive) | > 100 µM (inactive) | 70.3 µM (inactive) | 40.2 µM (inactive) | 44.2 µM (inactive) | 44.9 µM (inactive) | > 100 µM (inactive) | 34.6 µM (inactive) | 44.3 µM (inactive) | 43.9 µM (inactive) | 34.7 µM (inactive) |
| O=C1Nc2ccccc2/C1=C/c1c(Cl)[nH]c2ccc(O)cc12 | 0.649 µM (active) | 2.63 µM (inactive) | 2.31 µM (inactive) | 3.9 µM (inactive) | 1.17 µM (inactive) | 0.641 µM (active) | 1.95 µM (inactive) | 1.3 µM (inactive) | 3.27 µM (inactive) | 1.79 µM (inactive) | 4.7 µM (inactive) | 1.36 µM (inactive) | 3.16 µM (inactive) | 3.21 µM (inactive) | 3.02 µM (inactive) | 7.05 µM (inactive) | 2.36 µM (inactive) | 3.77 µM (inactive) | 0.681 µM (active) | 10.7 µM (inactive) |
| Nc1nc(CCl)nc(N2CCOCC2)n1 | 23.4 µM (inactive) | 17.8 µM (inactive) | 33 µM (inactive) | 17.3 µM (inactive) | 28.6 µM (inactive) | 36.1 µM (inactive) | 33.5 µM (inactive) | 3.4 µM (inactive) | 14 µM (inactive) | 28.9 µM (inactive) | 16.6 µM (inactive) | 27.1 µM (inactive) | 32.7 µM (inactive) | > 100 µM (inactive) | 55.3 µM (inactive) | 20.4 µM (inactive) | 36.6 µM (inactive) | 33.7 µM (inactive) | 15.8 µM (inactive) | 62.7 µM (inactive) |
